Patent US20230257347A1 (priority 2020, published 2023)
Where a name gives a salt, the structure may show the parent alone.

Key:
[1] = target: T1, Nuclear Hormone Glucocorticoid Receptor (GR) (Homo sapiens, UniProt P04150); test: NHR Protein Interaction assay, GR; format: cell-based
T1 sequence (P04150 1-777): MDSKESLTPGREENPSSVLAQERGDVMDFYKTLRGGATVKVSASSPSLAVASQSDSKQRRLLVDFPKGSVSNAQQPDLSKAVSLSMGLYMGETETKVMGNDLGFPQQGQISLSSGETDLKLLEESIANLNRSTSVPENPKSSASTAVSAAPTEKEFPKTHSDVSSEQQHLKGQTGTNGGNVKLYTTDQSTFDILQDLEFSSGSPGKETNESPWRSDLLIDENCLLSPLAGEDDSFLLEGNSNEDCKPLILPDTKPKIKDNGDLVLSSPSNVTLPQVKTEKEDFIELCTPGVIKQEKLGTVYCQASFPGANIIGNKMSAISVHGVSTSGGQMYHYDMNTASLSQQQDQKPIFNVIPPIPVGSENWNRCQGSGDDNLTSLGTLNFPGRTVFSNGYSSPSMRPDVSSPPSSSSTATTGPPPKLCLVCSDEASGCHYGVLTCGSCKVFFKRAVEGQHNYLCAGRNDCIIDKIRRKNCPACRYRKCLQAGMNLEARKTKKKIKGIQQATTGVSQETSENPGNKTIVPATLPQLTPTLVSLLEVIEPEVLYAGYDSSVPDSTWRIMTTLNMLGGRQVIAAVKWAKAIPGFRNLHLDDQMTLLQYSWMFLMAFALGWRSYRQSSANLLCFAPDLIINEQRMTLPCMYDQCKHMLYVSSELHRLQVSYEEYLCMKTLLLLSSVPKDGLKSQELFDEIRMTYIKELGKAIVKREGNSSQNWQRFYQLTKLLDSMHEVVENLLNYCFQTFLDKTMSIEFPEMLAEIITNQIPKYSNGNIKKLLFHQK

[2] = target: T2, Acetylcholinesterase (AChE) (Homo sapiens, UniProt P22303); test: Enzymatic assay, AChE; format: biochemical
T2 construct: purchased R&D Systems

[3] = target: Cannabinoid Receptor 2 (CNR2) (Homo sapiens, UniProt P34972); test: cAMP assay, CNR2; format: cell-based
Cannabinoid Receptor 2 (CNR2), sequence (P34972 whole entry): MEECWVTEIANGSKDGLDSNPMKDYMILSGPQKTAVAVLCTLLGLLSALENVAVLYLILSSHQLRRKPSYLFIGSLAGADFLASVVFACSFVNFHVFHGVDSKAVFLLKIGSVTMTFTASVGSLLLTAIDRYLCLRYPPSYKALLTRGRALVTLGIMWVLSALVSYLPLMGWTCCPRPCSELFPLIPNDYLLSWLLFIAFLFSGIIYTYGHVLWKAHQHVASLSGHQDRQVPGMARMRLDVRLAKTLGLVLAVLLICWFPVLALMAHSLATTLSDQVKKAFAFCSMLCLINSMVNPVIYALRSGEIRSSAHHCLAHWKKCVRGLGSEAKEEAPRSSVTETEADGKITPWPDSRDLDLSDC

[4] = target: T3, Nicotinic acetylcholine Receptor α4 β2 (nAChR(a4/b2)) (Homo sapiens, UniProt P17787+P43681); test: cell-based
T3 construct: expressed in transfected cells
T3 sequence (P43681 29-627 limits assumed): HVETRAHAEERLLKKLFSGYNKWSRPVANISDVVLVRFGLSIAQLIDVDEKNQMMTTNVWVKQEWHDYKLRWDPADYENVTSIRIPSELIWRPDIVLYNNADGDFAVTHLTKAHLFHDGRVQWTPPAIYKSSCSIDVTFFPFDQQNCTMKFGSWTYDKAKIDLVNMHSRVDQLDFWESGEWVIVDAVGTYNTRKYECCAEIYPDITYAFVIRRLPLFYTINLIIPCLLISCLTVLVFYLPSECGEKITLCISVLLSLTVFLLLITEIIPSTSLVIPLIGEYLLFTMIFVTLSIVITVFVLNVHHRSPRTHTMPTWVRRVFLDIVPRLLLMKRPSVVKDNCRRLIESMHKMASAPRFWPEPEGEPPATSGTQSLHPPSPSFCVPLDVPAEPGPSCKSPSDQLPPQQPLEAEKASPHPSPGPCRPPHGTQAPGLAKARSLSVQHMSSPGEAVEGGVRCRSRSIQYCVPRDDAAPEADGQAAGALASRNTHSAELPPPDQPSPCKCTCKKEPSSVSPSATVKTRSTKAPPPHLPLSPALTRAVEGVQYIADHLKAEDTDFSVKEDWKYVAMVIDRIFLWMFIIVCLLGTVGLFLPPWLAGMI
T3 sequence (P17787 26-502): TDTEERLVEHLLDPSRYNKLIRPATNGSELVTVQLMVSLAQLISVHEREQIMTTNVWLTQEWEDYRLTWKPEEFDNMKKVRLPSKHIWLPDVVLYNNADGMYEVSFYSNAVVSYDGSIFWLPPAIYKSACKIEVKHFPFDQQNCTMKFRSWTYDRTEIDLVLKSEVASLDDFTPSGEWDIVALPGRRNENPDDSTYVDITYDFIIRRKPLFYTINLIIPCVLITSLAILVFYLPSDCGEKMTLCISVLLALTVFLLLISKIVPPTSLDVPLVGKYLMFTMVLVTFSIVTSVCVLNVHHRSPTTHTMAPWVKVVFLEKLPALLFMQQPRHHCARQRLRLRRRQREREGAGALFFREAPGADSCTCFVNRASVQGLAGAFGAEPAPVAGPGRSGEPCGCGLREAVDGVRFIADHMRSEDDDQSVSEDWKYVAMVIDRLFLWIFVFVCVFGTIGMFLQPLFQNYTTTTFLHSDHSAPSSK

[5] = target: T4, N-methyl-D-aspartate (NMDA) Glutamate Receptor 1A/2B (NMDAR (1A/2B)) (Homo sapiens, UniProt Q05586+Q13224); test: Ion channel assay, NMDAR (1A/2B); format: cell-based
T4 construct: expressed in transfected cells
T4 sequence (Q13224 27-1484, other chains not shown): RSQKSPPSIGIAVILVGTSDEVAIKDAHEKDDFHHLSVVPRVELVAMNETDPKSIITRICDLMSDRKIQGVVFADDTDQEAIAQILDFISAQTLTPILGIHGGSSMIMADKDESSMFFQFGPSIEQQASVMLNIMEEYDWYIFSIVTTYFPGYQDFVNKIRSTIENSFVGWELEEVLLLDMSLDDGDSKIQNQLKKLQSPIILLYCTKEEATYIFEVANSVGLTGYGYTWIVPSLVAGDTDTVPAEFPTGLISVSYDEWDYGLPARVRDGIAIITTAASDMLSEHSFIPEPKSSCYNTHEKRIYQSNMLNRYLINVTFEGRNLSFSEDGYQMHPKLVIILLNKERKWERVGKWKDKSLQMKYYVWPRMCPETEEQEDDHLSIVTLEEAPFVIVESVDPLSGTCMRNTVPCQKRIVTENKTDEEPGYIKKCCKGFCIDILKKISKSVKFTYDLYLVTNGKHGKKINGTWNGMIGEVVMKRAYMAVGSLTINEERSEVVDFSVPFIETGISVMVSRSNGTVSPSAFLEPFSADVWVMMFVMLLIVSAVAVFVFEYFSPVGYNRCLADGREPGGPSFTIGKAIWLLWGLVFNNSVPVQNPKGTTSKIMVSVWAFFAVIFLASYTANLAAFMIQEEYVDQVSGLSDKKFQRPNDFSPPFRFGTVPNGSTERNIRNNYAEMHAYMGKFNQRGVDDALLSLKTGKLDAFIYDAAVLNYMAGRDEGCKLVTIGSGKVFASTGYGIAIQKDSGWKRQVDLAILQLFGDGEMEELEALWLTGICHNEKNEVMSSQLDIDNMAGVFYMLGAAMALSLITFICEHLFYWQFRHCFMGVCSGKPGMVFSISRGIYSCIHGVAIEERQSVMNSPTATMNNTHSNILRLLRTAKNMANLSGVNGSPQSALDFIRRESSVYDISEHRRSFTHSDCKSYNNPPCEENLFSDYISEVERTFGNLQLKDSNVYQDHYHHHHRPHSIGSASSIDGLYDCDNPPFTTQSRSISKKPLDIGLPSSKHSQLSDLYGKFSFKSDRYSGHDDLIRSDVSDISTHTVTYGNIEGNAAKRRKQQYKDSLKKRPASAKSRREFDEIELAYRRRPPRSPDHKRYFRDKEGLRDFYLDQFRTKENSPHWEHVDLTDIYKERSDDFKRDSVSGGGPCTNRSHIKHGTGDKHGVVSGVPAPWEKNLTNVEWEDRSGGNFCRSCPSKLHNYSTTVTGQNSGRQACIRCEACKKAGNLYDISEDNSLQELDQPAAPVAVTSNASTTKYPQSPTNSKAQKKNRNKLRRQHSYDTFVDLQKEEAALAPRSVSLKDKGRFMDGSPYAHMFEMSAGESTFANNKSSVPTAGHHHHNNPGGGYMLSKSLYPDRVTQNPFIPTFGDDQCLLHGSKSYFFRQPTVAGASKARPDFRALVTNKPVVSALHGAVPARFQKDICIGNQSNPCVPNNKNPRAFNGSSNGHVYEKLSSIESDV

[6] = target: Opioid Receptor Mu (OPRM1) (Homo sapiens, UniProt P35372); test: cell-based
[7] = target: 5-Hydroxytryptamine (Serotonin) Receptor 2B (5-HT2B) (Homo sapiens, UniProt P41595); test: Calcium flux secondary messenger assay, 5-HT2B; format: cell-based
[8] = target: NAV1.5 (tetrodotoxin-resistant voltage-gated sodium channel) (Homo sapiens, UniProt Q14524); test: cell-based
[9] = target: T5, CAMP-specific 3′,5′-cyclic phospho-diesterase (PDE4D2) (Homo sapiens, UniProt Q08499); test: Enzymatic assay, PDE4D2; format: biochemical
T5 construct: purchased Signal Chem

[10] = target: 5-Hydroxytryptamine (Serotonin) Receptor 1B (5-HT1B) (Homo sapiens, UniProt P28222); test: cAMP secondary messenger assay, 5-HT1B; format: cell-based
KvLQT1/minK = target: T6, KvLQT1/minK (Homo sapiens, UniProt P15382+P51787); test: Ion channel assay, KvLQT1/minK; format: cell-based
T6 construct: expressed in transfected cells
T6 sequence (P51787 whole entry): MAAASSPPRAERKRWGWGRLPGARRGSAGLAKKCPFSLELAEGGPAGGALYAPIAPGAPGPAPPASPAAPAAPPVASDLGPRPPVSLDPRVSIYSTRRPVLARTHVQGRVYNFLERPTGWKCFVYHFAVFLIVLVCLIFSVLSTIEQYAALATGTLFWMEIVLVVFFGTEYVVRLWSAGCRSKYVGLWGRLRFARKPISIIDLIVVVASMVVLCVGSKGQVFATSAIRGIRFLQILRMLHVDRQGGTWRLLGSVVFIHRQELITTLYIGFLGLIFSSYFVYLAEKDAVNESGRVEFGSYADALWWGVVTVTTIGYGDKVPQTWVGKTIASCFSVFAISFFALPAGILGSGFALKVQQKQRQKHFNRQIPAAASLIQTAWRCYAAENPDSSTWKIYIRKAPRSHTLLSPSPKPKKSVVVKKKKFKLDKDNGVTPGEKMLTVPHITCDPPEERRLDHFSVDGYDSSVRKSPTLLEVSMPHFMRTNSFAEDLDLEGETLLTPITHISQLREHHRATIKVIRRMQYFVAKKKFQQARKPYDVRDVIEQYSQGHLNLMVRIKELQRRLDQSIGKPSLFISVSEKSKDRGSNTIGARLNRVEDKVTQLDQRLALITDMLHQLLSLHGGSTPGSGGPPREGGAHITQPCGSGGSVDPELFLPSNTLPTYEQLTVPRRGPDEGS

human 5-HT2A = target: T7, human 5-HT2A (Homo sapiens, UniProt P28223); test: 5-HT2A agonist effect measured by HTRF as changes in IP1, HEK-293 cells; format: cell-based; details: 3.0E-05 M; control 10 μM serotonin; 30 min at 37° C.; duplicate averaged
T7 construct: expressed in transfected cells; host or cells: HEK-293
Method: Potential agonist effects of BK-5F-NM-AMT, BK-5F-NM-AMT, and BK-5F-NM-AMT at 5-HT2A receptors was measured by HTRF as changes in IPl. The effects were measured using human 5-HT2A expressed in HEK-293 cells, based on methods reported in Porter et al. British Journal of Pharmacology, 1999. 128(1), 13-20. Incubation was 30 min at 37° C. 10 μM serotonin was used as a positive control. The tryptamine derivatives were each tested at six concentrations from 3.0E-10 to 3.0E-05 M using log steps. All assays were performed in duplicate with results averaged.

[11] = target: T8, Vascular endothelial growth factor receptor 2 (KDR tyrosine kinase) (VEGFR2) (Homo sapiens, UniProt P35968); test: biochemical; format: binding
T8 construct: made in house; host or cells: E. coli BL21-derived host (T7 phage) or HEK-293

[12] = target: T9, CGMP-inhibited cyclic nucleotide phosphodiesterase 3A (PDE3A) (Homo sapiens, UniProt Q14432); test: Enzymatic assay, PDE3A; format: biochemical
T9 construct: purchased Signal Chem

[13] = target: T10, Rho Associated Coiled-Coil Containing Protein Kinase 1 (ROCK1) (Homo sapiens, UniProt Q13464); test: KINOMEscan binding assay, ROCK1
T10 construct: made in house; host or cells: E. coli BL21-derived host (T7 phage) or HEK-293
T10 sequence (Q13464 whole entry): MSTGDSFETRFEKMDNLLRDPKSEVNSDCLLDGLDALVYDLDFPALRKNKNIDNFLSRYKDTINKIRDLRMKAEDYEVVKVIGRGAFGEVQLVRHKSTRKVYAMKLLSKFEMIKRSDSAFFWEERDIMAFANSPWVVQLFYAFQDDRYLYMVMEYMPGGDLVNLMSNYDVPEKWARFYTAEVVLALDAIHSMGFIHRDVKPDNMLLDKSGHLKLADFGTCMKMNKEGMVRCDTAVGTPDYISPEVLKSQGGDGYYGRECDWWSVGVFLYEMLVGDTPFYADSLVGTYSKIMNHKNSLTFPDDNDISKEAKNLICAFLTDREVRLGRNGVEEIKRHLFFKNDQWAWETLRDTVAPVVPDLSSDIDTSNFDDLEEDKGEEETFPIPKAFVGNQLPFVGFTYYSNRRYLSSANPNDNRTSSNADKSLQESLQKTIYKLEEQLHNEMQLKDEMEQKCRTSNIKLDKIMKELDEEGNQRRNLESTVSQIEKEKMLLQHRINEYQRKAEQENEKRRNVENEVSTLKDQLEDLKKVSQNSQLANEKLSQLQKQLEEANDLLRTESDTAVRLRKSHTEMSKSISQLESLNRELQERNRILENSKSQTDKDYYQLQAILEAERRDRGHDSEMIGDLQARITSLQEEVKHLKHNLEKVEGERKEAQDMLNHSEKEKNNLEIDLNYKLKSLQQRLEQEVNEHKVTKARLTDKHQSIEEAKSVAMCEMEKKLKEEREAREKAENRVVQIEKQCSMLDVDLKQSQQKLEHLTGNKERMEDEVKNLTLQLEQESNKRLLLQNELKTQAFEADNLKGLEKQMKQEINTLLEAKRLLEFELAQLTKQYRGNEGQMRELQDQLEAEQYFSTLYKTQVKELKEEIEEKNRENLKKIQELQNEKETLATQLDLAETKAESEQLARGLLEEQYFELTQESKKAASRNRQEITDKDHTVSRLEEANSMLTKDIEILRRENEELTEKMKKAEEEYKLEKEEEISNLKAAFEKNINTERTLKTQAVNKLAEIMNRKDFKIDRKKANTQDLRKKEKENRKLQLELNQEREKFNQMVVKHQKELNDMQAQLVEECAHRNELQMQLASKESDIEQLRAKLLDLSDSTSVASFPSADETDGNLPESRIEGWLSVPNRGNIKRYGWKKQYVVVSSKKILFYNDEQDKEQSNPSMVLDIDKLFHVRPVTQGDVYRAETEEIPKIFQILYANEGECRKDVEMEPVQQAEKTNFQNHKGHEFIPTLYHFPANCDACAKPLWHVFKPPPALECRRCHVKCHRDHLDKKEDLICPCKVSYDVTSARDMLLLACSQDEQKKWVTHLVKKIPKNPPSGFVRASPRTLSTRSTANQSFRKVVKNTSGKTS

Molecule `CNC(C)C(=O)c1c[nH]c2ccc(Br)cc12` (stereo not drawn) [BK-5Br-NM-AMT, 1-(5-bromo-1H-indol-3-yl)-2-(methylamino) propan-1-one hydrochloride] has an EC50 [1] greater than 10 µM, an IC50 [1] greater than 10 µM and an IC50 [2] greater than 10 µM. For the same molecule, the EC50 [3] was greater than 10 µM, the IC50 [3] was greater than 10 µM and the EC50 [4] was greater than 10 µM. It also gave an IC50 [4] greater than 10 µM, an EC50 [5] greater than 10 µM and an IC50 [5] greater than 10 µM. The EC50 [6] was greater than 10 µM, the IC50 [6] was greater than 10 µM and the EC50 [7] was greater than 10 µM. For the same molecule, the IC50 [7] was 44.7 nM, the IC50 [8] was greater than 10 µM and the IC50 [9] was greater than 10 µM. For the same molecule, the EC50 [10] was greater than 10 µM, the IC50 [10] was greater than 10 µM and the EC50 (KvLQT1/minK) was greater than 10 µM. For the same molecule, the IC50 (KvLQT1/minK) was greater than 10 µM, the “Signal changes at the highest tested concentration” value (from here on “Signal changes”) (human 5-HT2A) was −1.1 % of control and the IC50 [11] was greater than 10 µM. For the same molecule, the IC50 [12] was greater than 10 µM and the IC50 [13] was greater than 10 µM.
`CNC(C)C(=O)c1c[nH]c2ccc(Cl)cc12` (stereo not drawn) [BK-5Cl-NM-AMT, 1-(5-chloro-1H-indol-3-yl)-2-(methylamino) propan-1-one hydrochloride] gave an EC50 [1] greater than 10 µM, an IC50 [1] greater than 10 µM and an IC50 [2] greater than 10 µM. For the same molecule, the EC50 [3] was greater than 10 µM, the IC50 [3] was greater than 10 µM and the EC50 [4] was greater than 10 µM. For the same molecule, the IC50 [4] was greater than 10 µM, the EC50 [5] was greater than 10 µM and the IC50 [5] was greater than 10 µM. For the same molecule, the EC50 [6] was greater than 10 µM, the IC50 [6] was greater than 10 µM and the EC50 [7] was greater than 10 µM. The IC50 [7] was 92.1 nM, the IC50 [8] was greater than 10 µM and the IC50 [9] was greater than 10 µM. For the same molecule, the EC50 [10] was greater than 10 µM, the IC50 [10] was greater than 10 µM and the EC50 (KvLQT1/minK) was greater than 10 µM. The IC50 (KvLQT1/minK) was greater than 10 µM, the “Signal changes” value (human 5-HT2A) was 1.3 % of control and the IC50 [11] was greater than 10 µM. For the same molecule, the IC50 [12] was greater than 10 µM and the IC50 [13] was greater than 10 µM.
Work on `CNC(C)C(=O)c1c[nH]c2ccc(F)cc12` (stereo not drawn) [BK-5F-NM-AMT, 1-(5-Fluoro-1H-indol-3-yl)-2-(methylamino) propan-1-one hydrochloride] yielded an EC50 [1] greater than 10 µM, an IC50 [1] greater than 10 µM and an IC50 [2] greater than 10 µM. For the same molecule, the EC50 [3] was greater than 10 µM, the IC50 [3] was greater than 10 µM and the EC50 [4] was greater than 10 µM. The IC50 [4] was greater than 10 µM, the EC50 [5] was greater than 10 µM and the IC50 [5] was greater than 10 µM. The EC50 [6] was greater than 10 µM, the IC50 [6] was greater than 10 µM and the EC50 [7] was greater than 10 µM. It also gave an IC50 [7] of 586 nM, an IC50 [8] greater than 10 µM and an IC50 [9] greater than 10 µM. The EC50 [10] was greater than 10 µM, the IC50 [10] was greater than 10 µM and the EC50 (KvLQT1/minK) was greater than 10 µM. For the same molecule, the IC50 (KvLQT1/minK) was greater than 10 µM, the “Signal changes” value (human 5-HT2A) was −0.8 % of control and the IC50 [11] was greater than 10 µM. The IC50 [12] was greater than 10 µM and the IC50 [13] was greater than 10 µM.
